Assay results reported in patent publication US20220226340A1, “CASEIN KINASE 1 INHIBITORS FOR USE IN THE TREATMENT OF DISEASES RELATED TO DUX4 EXPRESSION SUCH AS MUSCULAR DYSTROPHY AND CANCER” (Facio Intellectual Property B.V., priority 2019, published 2022).
Where two headings read alike, the source gives them in different places.

Experiments:
[1] = biological target: CK1α (Homo sapiens, UniProt P48729); assay: CK1α inhibition IC50; format: biochemical
[2] = tested on: DUX4; assay: high-content immunocytochemistry assay of endogenous DUX4 expression in differentiating primary FSHD myotubes; format: cell-based, human; conditions: for EC50: Homo sapiens, Myotube
From the text: (§1) A quantitative assay readout was developed based on script-based image analysis. […] To analyse the images, an automated script was developed, enabling the detection of nuclei, myotube borders and DUX4 signals, with the script also detecting artefacts to reduce false positive signals. The script enabled multiple validated readouts including the number of DUX4 positive nuclei and nuclei clusters, the fusion index, myotube area, myotube width and myotube skeleton length (see FIG. 2). Additionally, the total nuclei count was included as a measure of cell loss or compound toxicity.
A compound library containing approximately 5000 annotated compounds was screened in the high-content assay. For this purpose, primary myoblasts were seeded in 384 well plates after which the growth medium was replaced with differentiation medium. After 3 days of differentiation, cells were treated with library compounds (in duplicate on different screening plates) for 15 h, after which they were fixed and stained with antibodies against DUX4, antibodies against myosin heavy chain (MHC), and with DAPI (4′,6-diamidino-2-phenylindole). Script-based analysis provided readouts for DUX4 expression (count of DUX4-positive nuclei or DUX4 intensity) and for potential toxicity (fusion index and nuclei count).
Compounds were incubated with primary FSHD cells for 15 hours, as indicated by the arrow in FIG. 4A.
(§2) Compounds are administered either 15 h before fixation, resembling the original screening protocol, or 72 h before fixation (grey arrow). In the latter case, compounds are present during the whole differentiation process.

[3] = biological target: p38α (Homo sapiens, UniProt Q16539); assay: p38α inhibition IC50; format: biochemical
[4] = biological target: CK1δ (Homo sapiens, UniProt P48730); assay: CK1δ inhibition IC50; format: biochemical
[5] = biological target: CK1ε (Homo sapiens, UniProt P49674); assay: CK1ε inhibition IC50; format: biochemical
[6] = tested on: primary FSHD cells; assay: fusion index (myotube fusion) readout of the high-content assay in primary FSHD cells; format: cell-based, human; conditions: for effect on fusion index / myotube fusion: 72 h treatment, compound present during whole differentiation
From the text: as §1, §2

[7] = Table 7, p38 compounds, read-out: IC50 CK1a
[8] = 72 h, Table 4, 72 h treatment protocol, read-out: DUX4 EC50
[9] = 72 h, Table 6, 72 h treatment protocol, read-out: DUX4 EC50
[10] = 15 h, read-out: EC50 for DUX4 repression
[11] = Table 7, p38 compounds, read-out: IC50 p38

Sequence of p38α (Q16539 whole entry): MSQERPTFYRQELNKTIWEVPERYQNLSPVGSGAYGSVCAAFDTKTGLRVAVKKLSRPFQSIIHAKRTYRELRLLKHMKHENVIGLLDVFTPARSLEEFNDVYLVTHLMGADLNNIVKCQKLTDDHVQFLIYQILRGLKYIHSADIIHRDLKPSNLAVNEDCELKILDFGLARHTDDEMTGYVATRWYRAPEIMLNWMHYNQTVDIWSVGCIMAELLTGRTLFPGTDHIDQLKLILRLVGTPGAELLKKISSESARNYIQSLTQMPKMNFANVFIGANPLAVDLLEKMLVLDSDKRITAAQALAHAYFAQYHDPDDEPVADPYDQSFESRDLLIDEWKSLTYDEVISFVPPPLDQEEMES
Sequence of CK1α (P48729 whole entry): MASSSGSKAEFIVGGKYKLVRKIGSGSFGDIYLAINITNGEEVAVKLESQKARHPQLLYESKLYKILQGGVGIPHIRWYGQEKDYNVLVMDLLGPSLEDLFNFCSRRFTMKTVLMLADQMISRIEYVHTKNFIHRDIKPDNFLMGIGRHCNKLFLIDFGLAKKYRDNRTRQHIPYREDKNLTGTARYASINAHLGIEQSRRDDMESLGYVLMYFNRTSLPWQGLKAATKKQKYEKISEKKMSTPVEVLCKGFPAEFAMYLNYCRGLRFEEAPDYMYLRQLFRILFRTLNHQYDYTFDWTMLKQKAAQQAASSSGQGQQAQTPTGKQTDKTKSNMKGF
Sequence of CK1δ (P48730 whole entry): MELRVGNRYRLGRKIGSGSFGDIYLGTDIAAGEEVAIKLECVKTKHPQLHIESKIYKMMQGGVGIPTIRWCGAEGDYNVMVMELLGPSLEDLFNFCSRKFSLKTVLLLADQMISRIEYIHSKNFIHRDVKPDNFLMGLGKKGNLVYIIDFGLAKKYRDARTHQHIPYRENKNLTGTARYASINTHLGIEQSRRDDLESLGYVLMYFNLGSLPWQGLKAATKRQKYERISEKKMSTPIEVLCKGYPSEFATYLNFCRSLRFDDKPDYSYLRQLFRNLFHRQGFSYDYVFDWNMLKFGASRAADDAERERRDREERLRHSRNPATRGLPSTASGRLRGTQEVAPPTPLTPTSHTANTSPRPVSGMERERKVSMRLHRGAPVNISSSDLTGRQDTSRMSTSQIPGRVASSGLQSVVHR
Sequence of CK1ε (P49674 whole entry, the tested form may be a part): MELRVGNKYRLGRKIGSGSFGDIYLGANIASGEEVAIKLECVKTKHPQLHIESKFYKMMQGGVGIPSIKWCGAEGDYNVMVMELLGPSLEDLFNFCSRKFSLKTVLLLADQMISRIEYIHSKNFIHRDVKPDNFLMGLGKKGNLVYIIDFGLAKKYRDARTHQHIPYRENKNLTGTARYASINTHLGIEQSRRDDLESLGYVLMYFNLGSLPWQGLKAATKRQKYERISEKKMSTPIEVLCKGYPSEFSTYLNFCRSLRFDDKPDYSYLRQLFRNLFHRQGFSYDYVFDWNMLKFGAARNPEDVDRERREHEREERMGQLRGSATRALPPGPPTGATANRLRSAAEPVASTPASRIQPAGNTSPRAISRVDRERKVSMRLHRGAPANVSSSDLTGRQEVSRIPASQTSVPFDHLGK

Structure (SMILES)	EC50 [2, 8] [nM]	EC50 [2, 9] [nM]	IC50 ([1]; Table 4, read-out: CK1 a IC50) [nM]	IC50 ([1]; Table 6, read-out: IC50 CK1α) [nM]	IC50 ([4]; Table 4, read-out: CK1 d IC50) [nM]	IC50 ([4]; Table 6, read-out: IC50 CK1δ) [nM]	IC50 ([3]; Table 4, read-out: p38a IC50) [nM]	IC50 ([3]; Table 6, read-out: IC50 p38α) [nM]	also measured
Cc1c(F)cc(C(=O)NC2CC2)cc1-c1ccc(C(=O)NCC(C)(C)C)cn1 [Losmapimod, reference compound]	–	–	–	–	–	–	–	–	IC50 [1, 7]: > 10000 nM; effect on DUX4 ([2]; added during the last 15 h of differentiation): did not show any effect
CNCc1cc(-c2cn(C)nc2-c2ccc(F)cc2)ccn1 [Nr. 9]	–	–	–	–	–	58	–	–	EC50 [2, 10]: 3100 to 5500 nM; EC50 ([2]; 72 h, read-out: DUX4 EC50): 6400 nM
Cc1ccc(C(=O)NC2CC2)cc1-n1ncc(C(=O)c2cccc(C#N)c2)c1N [Acumapimod, reference compound]	–	–	–	–	–	–	–	–	effect on fusion index / myotube fusion [6]: inhibited the fusion index; IC50 [3, 11]: 22 nM; IC50 [1, 7]: > 10000 nM
CCCNC(=O)c1cn2ncnc(Nc3cc(C(=O)NC4CC4)ccc3C)c2c1C [BMS-582949, reference compound]	–	–	–	–	–	–	–	–	IC50 [1, 7]: > 10000 nM
C[C@@H]1CN(Cc2ccc(F)cc2)[C@@H](C)CN1C(=O)c1cc2c(C(=O)C(=O)N(C)C)cn(C)c2cc1Cl [SCIO469, reference compound]	–	–	–	–	–	–	–	–	IC50 [1, 7]: > 10000 nM
Cc1cc(F)ccc1-c1nc(NC(CO)CO)nc2c1ccc(=O)n2-c1c(F)cccc1F [SB-681323, reference compound]	–	–	–	–	–	–	–	–	effect on fusion index / myotube fusion [6]: inhibited the fusion index; IC50 [3, 11]: 11 nM; IC50 [1, 7]: > 10000 nM
NC(=O)c1ccc(N(C(N)=O)c2c(F)cccc2F)nc1-c1ccc(F)cc1F [VX702, 2-(2,4-difluorophenyl)-6-(1-(2,6-difluoropheny)ureido)nicotinamide, reference compound]	–	–	–	–	–	–	–	–	IC50 [1, 7]: > 10000 nM
Fc1cccc(-n2cnc3c(NCc4nc5ccc(F)c(F)c5[nH]4)nc(N4CCOCC4)nc32)c1 [SR-3029, reference compound]	–	–	–	–	–	–	–	–	IC50 ([3]; Table 3, read-out: p38a IC50): > 1000 nM; EC50 ([2]; 15 h, read-out: DUX4 EC50): 50 nM; EC50 [2, 10]: 50 to 120 nM
Cn1c(=O)c(Oc2ccc(F)cc2F)cc2cnc(NC(CCO)CCO)nc21 [Pamapimod, reference compound]	–	–	–	–	–	–	–	–	IC50 [1, 7]: > 10000 nM
Fc1ccc(-c2nn(CC(F)(F)F)cc2-c2ccnc3[nH]ccc23)cc1 [Nr. 20]	2200	2200	186	186	55.5	55	50.3	50	–
CC(C)(C)Cn1c(N)nc2ccc(-c3[nH]c(C(C)(C)C)nc3-c3ccc(F)cc3)nc21 [LY2228820, reference compound]	–	–	–	–	–	–	–	–	effect on fusion index / myotube fusion [6]: inhibited the fusion index; IC50 [3, 11]: 14 nM; IC50 [1, 7]: > 10000 nM; IC50 ([4]; Table 7, p38 compounds, read-out: IC50 CK1d): 2780 nM
Cc1ccc(-n2nc(C(C)(C)C)cc2NC(=O)NCc2cc(F)ccc2Oc2ccc3c(cnn3CCO)c2)cc1 [pexmetinib, reference compound]	–	–	–	–	–	–	–	–	IC50 [1, 7]: > 10000 nM
CNC(=O)c1ccc(C)c(-n2c(C)cc(OCc3ccc(F)cc3F)c(Br)c2=O)c1 [PH797804, reference compound]	–	–	–	–	–	–	–	–	IC50 [1, 7]: > 10000 nM
CN1Cc2nccc(-c3cn(C)nc3-c3ccc(F)cc3)c2C1=O [Nr. 5]	–	–	–	–	–	–	–	–	myotube formation in the presence of increasing concentrations of losmapimod ([6]; 72 h, CK1 inhibitor combined with losmapimod, microscopic images): myotube formation is still intact; EC50 ([2]; 15 h, read-out: DUX4 EC50): 1890 nM; EC50 [2, 10]: 1900 to 3100 nM; EC50 ([2]; 72 h, read-out: DUX4 EC50): 6700 nM

Continued, in another order:

EC50 [2, 8] [nM]	EC50 [2, 9] [nM]	IC50 ([1]; Table 4, read-out: CK1 a IC50) [nM]	IC50 ([1]; Table 6, read-out: IC50 CK1α) [nM]	IC50 ([4]; Table 4, read-out: CK1 d IC50) [nM]	IC50 ([4]; Table 6, read-out: IC50 CK1δ) [nM]	IC50 ([3]; Table 4, read-out: p38a IC50) [nM]	IC50 ([3]; Table 6, read-out: IC50 p38α) [nM]	Structure (SMILES)	also measured
250	250	–	–	–	–	–	–	CN1CCN(c2ccc3nc(-c4ccccc4)c(-c4ccncc4)n3n2)CC1 [Nr. 11]	–
1200	1200	196	196	16.9	17	–	–	Cn1cc(-c2ccnc3[nH]ccc23)c(-c2ccc(F)cc2)n1 [Nr. 16]	IC50 ([3]; IC50 p38α, Table 6): 18 nM; IC50 ([3]; p38a IC50, Table 4): 17.9 nM
8200	8200	636	636	46.5	46	312	312	Cn1cc(-c2ccnc(N)n2)c(-c2ccc(F)cc2)n1 [Nr. 18]	–
40	40	29.5	29	18.5	18	13.2	–	CC1(C)CN(c2ccc3nc(-c4ccc(F)cc4)c(-c4ccncc4)n3n2)CCN1 [Nr. 1]	IC50 ([3]; Table 3, read-out: p38a IC50): 13.2 nM; IC50 ([5]; Table 3, read-out: CK1 e IC50): 12.4 nM; IC50 ([5]; Table 4, read-out: CK1 e IC50): 12.4 nM; IC50 ([1]; Table 3, read-out: CK1 a IC50): 29.5 nM; EC50 ([2]; 15 h, Table 3, 15 h treatment protocol, primary FSHD cells, read-out: EC50 for DUX4 repression): 40 nM; IC50 ([4]; Table 3, read-out: CK1 d IC50): 18.5 nM
2900	2900	873	873	36.1	36	63.2	63	Cn1cc(-c2ccncc2)c(-c2ccc(F)cc2)n1 [Nr. 17]	–
310	310	–	–	–	–	–	–	c1ccc(-c2nc3ccc(N4CCC(N5CCCC5)CC4)nn3c2-c2ccncc2)cc1 [Nr. 13]	–
8100	8100	–	–	–	–	–	–	Cn1cc(-c2ccnc3c2C(=O)N(C2CCOCC2)C3)c(-c2ccc(F)cc2)n1 [Nr. 6]	IC50 ([5]; Table 3, read-out: CK1 e IC50): 72.4 nM; IC50 ([5]; Table 4, read-out: CK1 e IC50): 72.4 nM
50	50	–	–	–	–	–	–	c1ccc(-c2nc3ccc(N4CCNCC4)nn3c2-c2ccncc2)cc1 [Nr. 12]	–
2400	2400	> 10000	> 10000	2090	2090	1250	1250	Fc1ccc(-c2nc3ccc(N4CCOCC4)nn3c2-c2ccncc2)cc1 [Nr. 23]	–
390	390	270	270	45	45	42	42	Fc1ccc(-c2nc3ccc(N4CCC(N5CCCC5)CC4)nn3c2-c2ccncc2)cc1 [Nr. 14]	–
620	620	–	–	19.8	–	74.3	–	Nc1nccc(-c2c(-c3ccc(F)cc3)ncn2C2CCN(Cc3ccon3)CC2)n1 [PF-5006739, reference compound]	IC50 ([3]; Table 3, read-out: p38a IC50): 74.3 nM; IC50 ([5]; Table 3, read-out: CK1 e IC50): 26.8 nM; IC50 ([5]; Table 4, read-out: CK1 e IC50): 26.8 nM; IC50 ([4]; Table 3, read-out: CK1 d IC50): 19.8 nM
10	10	–	–	–	–	–	–	CC1(C)CN(c2ccc3nc(-c4ccccc4)c(-c4ccncc4)n3n2)CCN1 [Nr. 10]	–
780	780	1830	1830	115	115	15.9	16	OCCC#Cc1nc(-c2ccc(F)cc2)c(-c2ccncc2)n1CCCc1ccccc1 [RWJ 67657, reference compound]	–
5000	5000	–	–	–	42	–	–	COCCN1Cc2nccc(-c3cn(C)nc3-c3ccc(F)cc3)c2C1=O [Nr. 7]	IC50 ([5]; Table 6, read-out: IC50 CK1ε): 92 nM
760	760	–	–	–	–	32.4	–	Nc1nccc(-c2c(-c3ccc(F)cc3)ncn2C2CCCCC2)n1 [PF-670462, reference compound]	IC50 ([3]; Table 3, read-out: p38a IC50): 32.4 nM; effect on DUX4 ([2]; 72 h treatment): repress DUX4
100	100	61.4	61	58.5	58	28.9	29	Fc1ccc(-c2nc3ccc(N4CCNC5(CC5)C4)nn3c2-c2ccncc2)cc1 [Nr. 21]	–
480	480	331	331	55.7	58	21.7	22	Fc1ccc(-c2nc3sc(N4CCNCC4)nn3c2-c2ccncc2)cc1 [Nr. 24]	–
1100	1100	194	194	57.7	58	411	411	Fc1ccc(-c2nc3ccc(N4CCNCC4)nn3c2-c2ccnnc2)cc1 [Nr. 22]	–
340	340	65	65	29	29	23	23	CN1CCN(c2ccc3nc(-c4ccc(F)cc4)c(-c4ccncc4)n3n2)CC1 [Nr. 2]	–
4900	4900	4020	4020	80.7	81	449	449	Cc1cc(-c2cn(C)nc2-c2ccc(F)cc2)ccn1 [Nr. 19]	–
